In patent US9988358B2, “Phenazinium mediators” (Roche Diagnostics Operations, Inc., priority 2014, dated 2018):

Columns and labels:
Format in all cases: physicochemical
[1] = Reactivity towards ascorbate, decrease of absorption over time; settings: 0.23 mM compound, room temperature, 0.1 M triethylammonium acetate buffer pH 7, 5 fold molar excess of ascorbate
Method: 1-Acetylamino-5-methyl-phenazinium trifluormethanesulfonate, 1-Acetylamino-5-ethyl-phenazinium trifluoroacetate, and 1-(3-Carboxy-propionylamino)-5-ethyl-phenazinium (formula III) were compared regarding their reactivity towards ascorbate. To this end, each 0.23 mM of the respective compound was incubated at room temperature in 0.1 M triethylammonium acetate buffer (pH 7) in the presence of a 5 fold molar excess of ascorbate. Decrease of absorption at 517 nm (1-(3-Carboxy-propionylamino)-5-ethyl-phenazinium) or 512 nm (other two compounds) was recorded over time. Whereas with 1-Acetylamino-5-methyl-phenazinium, the absorption decreased by 12% per minute, the decrease slowed to 7% per minute for 1-Acetylamino-5-ethyl-phenazinium, and to less than 5% for 1-(3-Carboxy-propionylamino)-5-ethyl-phenazinium.

[2] = Formal redox potential by cyclic voltammetry in a test strip
Method: FIG. 1.) cyclic voltammograms of 1-(3-Carboxy-propionylamino)-5-ethyl-phenazinium (compound of formula (III)). A: Buffer pH 7.0 (blank current), B: 2 mM 1-(3-Carboxy-propionylamino)-5-ethyl-phenazinium in buffer, C: 2 mM 1-(3-Carboxy-propionylamino)-5-ethyl-phenazinium+1.2 mM ascorbic acid in buffer, D: 1.2 mM ascorbic acid in buffer.
The formal redox potential of a typical 1-Acylated amino phenazinium ethosulfate, 1-(3-Carboxy-propionylamino)-5-ethyl-phenazinium (compound of formula (III)), was measured vs. Ag/AgCl at a gold working electrode in a test strip. The cyclic voltammograms show, that a relatively low potential of −100 mV vs. Ag/AgCl is sufficient in order to oxidize the substance.
The quasi reversible oxidation and reduction of the mediator 1-(3-Carboxy-propionylamino)-5-ethyl-phenazinium occurs in a potential range between 0 mV and −500 mV vs. Ag/AgCl via two electron transfer. Ascorbic acid cannot be oxidized in this potential window and the current is similar to the blank current of the pure buffer solution.

[3] = Pot life of mediator formulations; settings: 48 h vs t=0 in reaction mixture
Method: FIG. 3.) Pot life of mediator formulations. Mediators 1-(3-Carboxy-propionylamino)-5-ethyl-phenazinium and 1-(3-Carboxypropoxy)-5-ethylphenazinium were compared in a pot life experiment. Pot life of 1-(3-Carboxy-propionylamino)-5-ethyl-phenazinium (A: 0 h, B: 48 h) and 1-(3-Carboxypropoxy)-5-ethylphenazinium (C:=0 h, D: 48 h) are shown; Linear: linear regression.
Mediators 1-(3-Carboxy-propionylamino)-5-ethyl-phenazinium and 1-(3-Carboxypropoxy)-5-ethylphenazinium were compared in a pot life experiment. Performance of mediators was measured immediately after preparing the reaction mixture (t=0) and after 48 h. […] Therefore, both mediators seem to be very stable in a formulation.

| redox potential after adding ascorbic acid ([2]; 2 mM mediator + 1.2 mM ascorbic acid in buffer pH 7.0, cyclic voltammetry) [mV vs. Ag/AgCl] | formal redox potential ([2]; gold working electrode in a test strip, physiological conditions (0.9% NaCl), cyclic voltammetry) [mV vs. Ag/AgCl] | change in current after pot life [3] | decrease of absorption at 517 nm [1] | SMILES | decrease of absorption at 512 nm [1] [% per minute] |
| --- | --- | --- | --- | --- | --- |
|  |  |  |  | CC(=O)Nc1cccc2c1nc1ccccc1[n+]2C.O=S(=O)([O-])C(F)(F)F [1-Acetylamino-5-methyl-phenazinium, 1-Acetylamino-5-methyl-phenazinium trifluormethanesulfonate] | 12 |
|  |  |  |  | CC[n+]1c2ccccc2nc2c(NC(C)=O)cccc21.O=C([O-])C(F)(F)F [1-Acetylamino-5-ethyl-phenazinium, 1-Acetylamino-5-ethyl-phenazinium trifluoroacetate] | 7 |
| −231 | −236 | no significant decrease in current | less than 5% | CC[n+]1c2ccccc2nc2c(NC(=O)CCC(=O)O)cccc21 [1-(3-Carboxy-propionylamino)-5-ethyl-phenazinium] |  |
|  |  | no significant decrease in current |  | CC[n+]1c2ccccc2nc2c(OCCCC(=O)O)cccc21 [1-(3-Carboxypropoxy)-5-ethylphenazinium, reference compound] |  |
